In patent publication US20110275692A1, “SUBSTITUTED GAMMA LACTAMS AS THERAPEUTIC AGENTS” (ALLERGAN, INC., priority 2005, published 2011):

How the values were obtained:
[1] = molecular target: T1, hEP2/Gqs5 (Homo sapiens, UniProt P43116); test: EP2 FLIPR calcium signal; assay type: cell-based; details: HEK-293(EBNA) cells
T1 construct: expressed in transfected cells; host or cells: HEK-293(EBNA)
Description: (§1) HEK-293(EBNA) cells, stably expressing one type or subtype of recombinant human prostaglandin receptors (prostaglandin receptors expressed: hDP/Gqs5; hEP1; hEP2/Gqs5; hEP3A/Gqi5; hER4/Gqs5; hFP; hIP; hTP), were cultured in 100 mm culture dishes in high-glucose DMEM medium containing 10% fetal bovine serum, 2 mM 1-glutamine, 250 μg/ml geneticin (G418) and 200 μg/ml hygromycin B as selection markers, and 100 units/ml penicillin G, 100 μg/ml streptomycin and 0.25 μg/ml amphotericin B.
(§2) Cells were seeded at a density of 5×10^4 cells per well in Biocoat® Poly-D-lysine-coated black-wall, clear-bottom 96-well plates (Becton-Dickinson) and allowed to attach overnight in an incubator at 37° C. Cells were then washed two times with HBSS-HEPES buffer (Hanks Balanced Salt Solution without bicarbonate and phenol red, 20 mM HEPES, pH 7.4) using a Denley Cellwash plate washer (Labsystems). […]
(§3) Cells were excited with an Argon laser at 488 nm, and emission was measured through a 510-570 nm bandwidth emission filter (FLIPR™, Molecular Devices, Sunnyvale, Calif.). […] The peak increase in fluorescence intensity was recorded for each well. […] The peak fluorescence change in each drug-containing well was then expressed relative to the controls. […]

[2] = molecular target: T2, hEP3A/Gqi5 (Homo sapiens, UniProt P43115); test: Other receptors: hEP3A FLIPR; assay type: cell-based
T2 construct: expressed in transfected cells; host or cells: HEK-293(EBNA)
T2 sequence (P43115 1-390): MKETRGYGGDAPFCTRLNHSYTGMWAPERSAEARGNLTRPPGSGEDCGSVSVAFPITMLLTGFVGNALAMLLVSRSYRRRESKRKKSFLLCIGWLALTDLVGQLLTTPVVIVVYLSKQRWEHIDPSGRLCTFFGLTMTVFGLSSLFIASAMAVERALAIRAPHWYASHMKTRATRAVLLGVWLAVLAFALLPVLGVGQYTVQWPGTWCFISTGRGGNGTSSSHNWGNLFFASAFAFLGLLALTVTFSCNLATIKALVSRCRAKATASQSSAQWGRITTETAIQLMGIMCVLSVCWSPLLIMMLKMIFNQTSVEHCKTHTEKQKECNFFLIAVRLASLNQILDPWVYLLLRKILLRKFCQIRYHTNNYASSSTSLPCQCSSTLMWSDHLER
Description: as §1, §2, §3

[3] = molecular target: T3, EP4 receptors (Homo sapiens, UniProt P35408); test: EP4 radioligand binding ([3H]PGE2)
T3 construct: expressed in transfected cells; host or cells: HEK-293
Description: HEK-293 cells stably expressing the human or feline FP receptor, or EP1, EP2, or EP4 receptors were washed with TME buffer, scraped from the bottom of the flasks, and homogenized for 30 sec using a Brinkman PT 10/35 polytron. TME buffer was added to achieve a final 40 ml volume in the centrifuge tubes (the composition of TME is 100 mM TRIS base, 20 mM MgCl2, […]; 10N HCl is added to achieve a pH of 7.4).
The cell homogenate was centrifuged at 19000 r.p.m. for 20 min at 4° C. using a Beckman Ti-60 rotor. The resultant pellet was resuspended in TME buffer to give a final 1 mg/ml protein concentration, as determined by Biorad assay. Radioligand binding competition assays vs. [^3H-]17-phenyl PGF2α (5 nM) were performed in a 100 μl volume for 60 min. Binding reactions were started by adding plasma membrane fraction. The reaction was terminated by the addition of 4 ml ice-cold TRIS-HCl buffer and rapid filtration through glass fiber GF/B filters using a Brandel cell harvester. The filters were washed 3 times with ice-cold buffer and oven dried for one hour.
[^3H-]PGE2 (specific activity 180 Ci mmol) was used as the radioligand for EP receptors. [^3H] 17-phenyl PGF2α was employed for FP receptor binding studies. […] 17-phenyl PGF2α and non-specific binding determined with 10^−5M of unlabeled PGE2, or 17-phenyl PGF2α, according to receptor subtype studied.

[4] = molecular target: T4, EP2 (Homo sapiens, UniProt P43116); test: EP2 cAMP; assay type: cell-based
[5] = molecular target: T4, EP2; test: EP2 competition binding ([3H]PGE2); parameters: expressed in transfected cells; host or cells: HEK 293; details: HEK 293 cells stably expressing human EP2, [3H]PGE2
Description: Competition binding experiments were performed in a medium containing Hank's balanced salt solution, Hepes 20 mM, pH 7.3, membranes (˜60 μg protein) or 2×10^5 cells from HEK 293 cells stably expressing human EP2 receptors, [^3H]PGE2 (10 nM) and various concentrations of test compounds in a total volume of […] Reaction mixtures were incubated at 23° C. for 60 min, and were filtered over Whatman GF/B filters under vacuum. Filters were washed three times with 5 ml ice-cold buffer containing 50 mM Tris/HCl (pH 7.3). Non-specific binding was estimated in the presence of excess unlabeled PGE2 (10 μM). Binding data fitted to the binding model for a single class of binding sites, using nonlinear regression analysis. IC50 values thus obtained were converted to Ki using the equation of Ki=(IC50/(1+[L]/KD) where [L] represents PGE2 concentration (10 nM) and KD the dissociation constant for [^3H]PGE2 at human EP2 receptors (40 nM). […]
The cell homogenate was centrifuged at 19000 r.p.m. for 20 min at 4° C. using a Beckman Ti-60 rotor. The resultant pellet was resuspended in TME buffer to give a final 1 mg/ml protein concentration, as determined by Biorad assay. […]
[^3H-]PGE2 (specific activity 180 Ci mmol) was used as the radioligand for EP receptors. […] 17-phenyl PGF2α and non-specific binding determined with 10^−5M of unlabeled PGE2, or 17-phenyl PGF2α, according to receptor subtype studied.

T4 sequence (P43116 whole entry): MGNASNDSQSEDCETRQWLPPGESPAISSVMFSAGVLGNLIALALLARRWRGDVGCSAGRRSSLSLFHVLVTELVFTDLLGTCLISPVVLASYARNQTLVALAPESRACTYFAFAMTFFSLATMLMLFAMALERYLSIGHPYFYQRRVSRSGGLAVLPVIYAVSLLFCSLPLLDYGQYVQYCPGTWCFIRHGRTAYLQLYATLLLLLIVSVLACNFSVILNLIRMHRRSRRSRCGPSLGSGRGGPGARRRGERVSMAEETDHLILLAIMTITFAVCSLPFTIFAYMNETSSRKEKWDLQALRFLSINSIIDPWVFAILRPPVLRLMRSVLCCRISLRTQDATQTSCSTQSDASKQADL
T1 sequence (P43116 whole entry): as above
T3 sequence (P35408 whole entry): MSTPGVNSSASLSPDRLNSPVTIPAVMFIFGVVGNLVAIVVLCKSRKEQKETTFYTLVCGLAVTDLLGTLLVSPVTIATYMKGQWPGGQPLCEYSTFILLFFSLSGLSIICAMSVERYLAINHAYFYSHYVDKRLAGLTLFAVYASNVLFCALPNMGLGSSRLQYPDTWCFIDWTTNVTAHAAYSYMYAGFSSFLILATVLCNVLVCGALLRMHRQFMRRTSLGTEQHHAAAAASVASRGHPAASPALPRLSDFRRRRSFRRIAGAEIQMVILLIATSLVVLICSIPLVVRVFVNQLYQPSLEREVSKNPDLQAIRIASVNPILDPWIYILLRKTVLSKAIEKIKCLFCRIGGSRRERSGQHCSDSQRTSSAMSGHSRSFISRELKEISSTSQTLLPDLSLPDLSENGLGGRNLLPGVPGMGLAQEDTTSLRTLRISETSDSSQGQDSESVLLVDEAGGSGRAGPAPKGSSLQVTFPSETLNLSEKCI

CCCCCC(O)c1ccc(N2C(=O)CC[C@@H]2C=CCc2ccc(C(=O)O)s2)cc1 (stereo partly drawn) [Example 16, 5-((E and Z)-3-{(R)-1-[4-(1-Hydroxy-hexyl)-phenyl]-5-oxo-pyrrolidin-2-yl}-allyl)-thiophene-2-carboxylic acid]
EC50 [1]: 0.226 µM
EC50 [2]: 1.41 µM
Ki [3]: > 10 µM
EC50 [4]: 0.015 µM
Ki [5]: 1.38 µM
